Results taken from PubChem BioAssay (NCI).
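Briefly, cells in 96-well plates were exposed to five compound concentrations for 48 h, and endpoints were estimated by linear interpolation. At the TGI there is no net growth.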

Tests used:
Assay in all cases: NCI tumour cell line growth inhibition, 48 h
RXF-631 renal = test system: RXF-631 renal
HOP-18 NSCLC = test system: HOP-18 NSCLC
LXFL 529 NSCLC = test system: LXFL 529 NSCLC
KM20L2 colon = test system: KM20L2 colon
M19-MEL melanoma = test system: M19-MEL melanoma
DMS 273 small cell lung = test system: DMS 273 small cell lung
XF 498 CNS = test system: XF 498 CNS
SNB-78 CNS = test system: SNB-78 CNS
MDA-N = test system: MDA-N

Row | SMILES | TGI (RXF-631 renal) | TGI (HOP-18 NSCLC) | TGI (LXFL 529 NSCLC) | TGI (KM20L2 colon) | TGI (M19-MEL melanoma) | TGI (DMS 273 small cell lung) | TGI (XF 498 CNS) | TGI (SNB-78 CNS) | TGI (MDA-N)
1 | CC1=CC(O)(c2ccc(-c3ccccc3Cl)cc2)OC1=O (stereo not given) | > 100 µM | > 100 µM | > 100 µM | > 100 µM | > 100 µM | > 100 µM |  |  | 
2 | CC(C)OP(=O)(OC(C)C)C(=NCCN=C(NNc1ccc([N+](=O)[O-])cc1)P(=O)(OC(C)C)OC(C)C)NNc1ccc([N+](=O)[O-])cc1 |  |  | > 100 µM | > 100 µM | > 100 µM | > 100 µM | 9.04 µM |  | 
3 | CCOC(=O)C(=C=C=C(c1ccccc1)c1ccccc1)C(=O)OCC | 77 µM |  | 31.4 µM | 45.2 µM | 37.7 µM | 45.5 µM | 30.3 µM | 37 µM | 
4 | N=Nc1c(OC(=O)Nc2cccc(Cl)c2)[nH]c2ccccc12 |  |  |  |  |  |  |  |  | 10.1 µM
5 | CC(=O)OC1COC(n2ccc3cc(Br)c([N+](=O)[O-])cc32)C(OC(C)=O)C1OC(C)=O (stereo not given) | 58.8 µM |  | > 100 µM | > 100 µM | > 100 µM | > 100 µM | 30.5 µM | 84.6 µM | 
6 | Cn1c2ccccc2c2cc(-c3ccccc3)c3c(c21)C(=O)c1ccccc1C3=O | > 100 µM |  | 29.3 µM |  | 6.47 µM | 44.9 µM | 39.7 µM | 54.3 µM | 
7 | Brc1ccccc1C1SCc2nc3ccccc3n21 (stereo not given) |  |  | 77.9 µM |  | 34.8 µM |  |  | 83.7 µM | 
8 | Cc1ccccc1S(=O)(=O)OC1NS(=O)(=O)c2ccccc21 (stereo not given) |  |  |  |  |  |  |  |  | > 100 µM
9 | CCc1cc(Cc2cc(CC)c(NC(=O)C(=O)Cc3ccccn3)c(CC)c2Cl)c(Cl)c(CC)c1NC(=O)C(=O)Cc1ccccn1 |  | > 100 µM | > 100 µM | > 100 µM | > 100 µM | > 100 µM | > 100 µM | > 100 µM | 
10 | O=c1cc(-c2ccccc2)oc2cc(OCCCOc3ccc4c(=O)cc(-c5ccccc5)oc4c3)ccc12 |  | > 100 µM | > 100 µM | > 100 µM | > 100 µM | > 100 µM | > 100 µM | > 100 µM | 
